Test results as given in patent publication US20260083704A1, “LXR MODULATORS WITH BICYCLIC CORE MOIETY FOR TREATING DYSLIPIDEMIAS” (OrsoBio, Inc., priority 2022, published 2026).
“Also recorded” adds a separate entry of the source.

What was measured:
healthy subjects [1] = test: Phase 1 study, SAD cohorts: safety and tolerability; format: in vivo, human; details: range over dose groups
Experimental: A double-blind, placebo-controlled, single- and multiple-ascending dose FIH Phase 1 study to evaluate the safety, tolerability, PK, and PD of Compound 21/3 in healthy adult subjects was performed. A total of up to 150 subjects were enrolled, including 100 subjects in Parts A and B, and up to 50 subjects in adaptive cohorts in Part C. Within each cohort, 10 subjects were randomized, including 8 subjects randomized to Compound 21/3 and 2 subjects to PTM (placebo-to-match). In single-dose cohorts in Parts A and in any Part C cohort evaluating a higher total daily dose than previously evaluated, safety and tolerability data collected through Day 2 from two sentinel subjects, one randomized to Compound 21/3 and one to PTM, were evaluated prior to dosing of the remaining subjects in each cohort.
An approximately even distribution of healthy male and non-pregnant, non-lactating female subjects 18 to 55 years of age, inclusive, were to be enrolled in the study. There were no significant medical conditions by history, physical examination, or laboratory evaluation. Subjects were not allowed to participate in more than one cohort of the study. Within each MAD cohort, attempts were made to enrich for >3 subjects with elevated TG and/or LDL-C. Following the completion of Screening and admission assessments, eligible subjects were to be enrolled on Day −1. […]

HFD-fed SD rats = test: HFD-fed Sprague-Dawley (SD) rat model; format: in vivo
Source text: Data are shown as mean±SD. N=5-8 animals per group. *p≤0.05, **p≤0.01, ***p≤0.001, ****p≤0.0001 vs. vehicle, unless otherwise indicated; ^#p≤0.05 pioglitazone vs. vehicle Kruskal-Wallis (non-parametric One-Way ANOVA) test with Dunn's multiple comparisons test (FIG. 4A, FIG. 4B, FIG. 4D), repeated measures two-way ANOVA with Dunnett's multiple comparisons test (FIG. 4C), two-way ANOVA with Sidak's multiple comparisons test (FIG. 4E), Mann-Whitney test (FIG. 4F-G).
Data are shown as mean±SD. N=5-8 animals per group. *p≤0.05, **p≤0.01, ***p≤0.001, ****p≤0.0001 vs. vehicle, unless otherwise indicated; ^#p≤0.05 pioglitazone vs. vehicle repeated measures two-way ANOVA with Dunnett's multiple comparisons test (FIG. 5A, FIG. 5C, FIG. 5D), Kruskal-Wallis (non-parametric one-way ANOVA) test with Dunn's multiple comparisons test (FIG. 5B, FIG. 5E).
The efficacy of Compound 21/3 was evaluated in three dysmetabolic rodent models including DIO mice, HFD-fed ZDF rats, and HFD-fed SD rats (FIG. 4 and FIG. 5). Briefly, DIO mice were fed a HFD (60% kcal from fat) for 14 weeks and treated with Compound 21/3 (0.3 and 1 mg/kg once daily by oral gavage) for three weeks, while ZDF and SD rats were fed HFD for two weeks prior to treatment with Compound 21/3 (0.1 and 1 mg/kg once daily by oral gavage) for two or three weeks, respectively.

ApoC3 and ANGPTL3 = test: Phase 1 study, MAD cohorts: plasma ApoC3 and ANGPTL3 by ELISA; format: in vivo, human; details: healthy subjects, Day 1 to Day 14, 12 h postdose
Experimental: (§1) Lipid parameters, including apolipoprotein B (apoB), were evaluated by NMR LipoProfile® (Labcorp, Burlington, NC. Plasma ApoC3 and ANGPTL3 were evaluated by ELISA (360biolabs, Melbourne, Australia). Peripheral RCT (reverse cholesterol transport) were evaluated by assessing changes in expression of ABCA1/ABCG1 in PBMCs, predose and 4 hours postdose on Days 1 and 14 (Gnomix, Bedford Park, Australia).
In FIG. 14A to 14C, ApoC3 and ANGPTL3 measured 12 h postdose. RCT assessed predose and 4 h postdose on Day 14.

healthy subjects [2] = test: Phase 1 study, MAD cohorts: serum lipid parameters by NMR LipoProfile; format: in vivo, human; details: Day 1 to Day 14
Experimental: as §1
Methods. In a randomized, double-blind, placebo (PBO)-controlled Phase 1 study, healthy subjects (n=8/2 Compound 21/3 vs PBO/cohort) received single ascending doses (SAD) of Compound 21/3 (0.5, 2, 6, 12, or 20 mg) or multiple ascending doses (MAD) QD for 14 days (0.5, 2, 6, or 12 mg) while fed or 6 mg fasted. Safety, PK, serum lipid parameters by NMR LipoProfile®, and gene expression in PBMCs were evaluated.
Results. The proportion of subjects with adverse events (AEs) was 60% with PBO and 13-50% with Compound 21/3 in the SAD cohorts (n=50), and 40% and 13-88%, respectively, in the MAD cohorts (n=50). All AEs were mild except an unrelated, Grade 2 thrombophlebitis in a subject on Compound 21/3 2 mg. […] With fasted dosing, exposures were similar on Days 1 and 14 and ˜3-fold higher than with fed dosing. […] In FIG. 13A-13H, figures on graphs indicate median relative (%) change in predose NMR Lipoprofile® parameter from Day 1 to Day 14. […]

[3] = tested on: CDHFD/sodium nitrate-treated Wistar Han rats; test: CDHFD/sodium nitrate rat model of NASH with advanced fibrosis; format: in vivo; details: 5 mg/kg once daily oral
Source text: Data are shown as mean±SD. N=7-8 animals per group. *p≤0.05, **p≤0.01, ***p≤0.001, ****p≤0.0001 Mann-Whitney test.
The CDHFD model of NASH is characterized by reduced phosphatidylcholine synthesis in the liver and impaired TG secretion in VLDL particles, which results in hepatic lipid accumulation, inflammation, oxidative stress, and severe fibrosis. Liver injury in CDHFD-fed rats can be exacerbated by further inducing hypoxia using sodium nitrate (Takayama, Egashira et al. 2009). Wistar Han rats were treated with CDHFD/sodium nitrate for a total of 12 weeks and dosed with Compound pre-6/3 (5 mg/kg once daily by oral gavage) from Weeks 6 to 12. […] Moreover, compared with vehicle treatment, Compound pre-6/3 decreased hepatic hydroxyproline and collagen content by 64% (p≤0.001) and 50% (p≤0.001), respectively (FIG. 8B-C).

SMILES	proportion of subjects with adverse events (AEs) (healthy subjects [1])	liver expression of DNL genes (Srebp1c, Fasn, Acaca, Scd1) (HFD-fed SD rats; 0.1 and 1 mg/kg once daily oral)	reduction of plasma TG compared with vehicle (HFD-fed SD rats; highest dose 1 mg/kg, p≤0.05) [%]	maximal reduction of liver TG versus vehicle (HFD-fed SD rats; p=0.07) [%]	plasma ApoC3 and ANGPTL3 (ApoC3 and ANGPTL3)	HDL-C (healthy subjects [2])	serum triglycerides, total and LDL-C, total and small LDL particles, TG/HDL-C ratio (healthy subjects [2])	fibrosis (picrosirus red staining) ([3]; Weeks 6 to 12)	hepatic expression of DNL genes (Srebp1c, Scd1, Fasn) and fibrogenesis genes (Timp1, Col1a1, Acta2) ([3]; Weeks 6 to 12)	liver TG content ([3]; Weeks 6 to 12)	decrease of hepatic collagen content compared with vehicle ([3]; Weeks 6 to 12, p≤0.001) [%]	decrease of hepatic hydroxyproline content compared with vehicle ([3]; Weeks 6 to 12, p≤0.001) [%]
N#Cc1cccc(C#N)c1-c1c(-c2cccc(-c3ccc(C(=O)NCC(=O)O)cc3Cl)c2)n(S(=O)(=O)c2ccc(C(F)F)cc2)c2ccc(F)cc12 [Compound 21/3]	13-50%	dose-dependently reduced	59	42	reduces	not HDL-C	Significant, dose-dependent reductions; also recorded: significant, dose-dependent improvements	–	–	–	–	–
N#Cc1cccc(C#N)c1-c1c(-c2cccc(-c3ccc(C(=O)O)cc3Cl)c2)n(S(=O)(=O)c2ccc(C(F)F)cc2)c2ccc(F)cc12 [pre-6/3]	–	–	–	–	–	–	–	significantly decreased	decreased	decreased	50	64
